Structures can show the parent of a compound that is named as a salt.
Assays:
[1] = in vivo screen APCC: blood cholesterol in rats fed overnight a high fat, high cholesterol (PCC) diet; conditions: male Sprague-Dawley rats, dosed at 4 PM, PCC diet with 0.5% cholic acid overnight, blood sampled 8 AM, dose not given
Source text: In one in vivo screen designated APCC, male Sprague-Dawley rats (200 to 225 g) were randomly divided into treatment groups and dosed at 4 PM with either vehicle (CMC/Tween) or suspensions of compounds in vehicle. The normal chow diet was then replaced with a high fat, high cholesterol diet (designated PCC) containing 0.5% cholic acid. The rats consumed this diet ad libitum during the night and were sacrificed at 8 AM to obtain blood samples for cholesterol analysis using standard procedures. Statistical differences between mean cholesterol values for the same vehicle were determined using analysis of variance followed by Fisher's least significant test.

[2] = biological target: acyl-CoA:cholesterol acyltransferase (ACAT); assay: in vitro ACAT inhibition (LAI): radiolabeled cholesterol oleate formed from radiolabeled oleic acid in rat liver microsomes; format: biochemical; conditions: concentration required to inhibit enzyme activity by 50%
Description: The ability of representative compounds of the present invention to inhibit ACAT was measured using an in vitro test more fully described in Field FJ, Salone RG, Biochemica et Biophysica, 1982;712:557-570. The test assesses the ability of a test compound to inhibit the acylation of cholesterol by oleic acid by measuring the amount of radiolabeled cholesterol oleate formed from radiolabeled oleic acid in a tissue preparation containing rat liver microsomes.

Row | SMILES | % Change (mg/dl) in cholesterol [1] | IC50 [2] | % Change (mg/dl) in cholesterol ([1]; sodium salt) | IC50 ([2]; sodium salt)
1 | COc1ccc(OC)c(CC(=O)NS(=O)(=O)Oc2c(C(C)C)cccc2C(C)C)c1 [Example 16, sulfamic acid[2,5-dimethoxyphenyl(acetyl)]-2,6-bis(1-methylethyl)phenyl ester] | +10% | 36 µM |  | 
2 | CC(C)c1cc(C(C)C)c(C(O)C(=O)NS(=O)(=O)Oc2c(C(C)C)cccc2C(C)C)c(C(C)C)c1 (stereo not shown) [Example 43, sulfamic acid[hydroxy[2,4,6-tris(1-methylethyl)phenyl]acetyl]-2,6-bis(1-methylethyl)phenyl ester] | -45% | 31 µM |  | 
3 | CC(C)c1cc(C(C)C)c(CC(=O)NS(=O)(=O)Oc2c(-c3ccccc3)cccc2-c2ccccc2)c(C(C)C)c1 [Example 48, sulfamic acid[[2,4,6-tris(1-methylethyl)phenyl]acetyl]-2,6-bis(phenyl)phenyl ester] | -73% | 8.3 µM |  | 
4 | CCC(C)C(C(=O)NS(=O)(=O)Oc1c(C(C)C)cccc1C(C)C)c1ccccc1 (stereo not shown) [Example 45, sulfamic acid(3-methyl-1-oxo-2-phenylpentyl)-2,6-bis(1-methylethyl)phenyl ester sodium salt] |  |  | -63% | 5.6 µM
5 | CC(C)c1cccc(C(C)C)c1OS(=O)(=O)NC(=O)CCc1ccccc1 [Example 38, sulfamic acid(1-oxo-3-phenylpropyl)-2,6-bis(1-methylethyl)phenyl ester] | -16% | 31 µM |  | 
6 | CCCCCCCCCCCC(=O)NS(=O)(=O)Oc1c(C(C)C)cccc1C(C)C [Example 11, sulfamic acid(dodecanoyl)-2,6-bis(1-methylethyl)phenyl ester] | -8% | > 10 µM |  | 
7 | CC(C)c1cc(C(C)C)c(CC(=O)NS(=O)(=O)Oc2c(C(C)C)cc(C(C)C)cc2C(C)C)c(C(C)C)c1 [Example 8, sulfamic acid[[2,4,6-tris(1-methylethyl)phenyl]acetyl]-2,4,6-tris(1-methylethyl)phenyl ester] | -66% | 21 µM |  | 
8 | CC(C)c1cccc(C(C)C)c1OCC(=O)NS(=O)(=O)Oc1c(C(C)C)cccc1C(C)C [Example 47, sulfamic acid[[2,6-bis(1-methylethyl)phenoxy]acetyl]-2,6-bis(1-methylethyl)phenyl ester] | -46% | 38 µM |  | 
9 | CC(C)c1cccc(C(C)C)c1OS(=O)(=O)NC(=O)C(=O)c1ccccc1 [Example 22, sulfamic acid(oxophenylacetyl)-2,6-bis(1-methylethyl)phenyl ester] | -23% | 50 µM |  | 
10 | COc1ccccc1CC(=O)NS(=O)(=O)Oc1c(C(C)C)cccc1C(C)C [Example 21, sulfamic acid[2-methoxyphenyl(acetyl)]-2,6-bis(1-methylethyl)phenyl ester] | -16% | 55 µM |  | 
11 | CC(C)c1cccc(C(C)C)c1OS(=O)(=O)NC(=O)C(C)c1ccccc1 (stereo not shown) [Example 24, sulfamic acid(1-oxo-2-phenylpropyl)-2,6-bis(1-methylethyl)phenyl ester] | -24% | 26 µM |  | 
12 | CC(=O)OC(C(=O)NS(=O)(=O)Oc1c(C(C)C)cccc1C(C)C)c1c(C(C)C)cc(C(C)C)cc1C(C)C (stereo not shown) [Example 42, sulfamic acid[(acetyloxy)[2,4,6-tris(1-methylethyl)phenyl]acetyl]-2,6-bis(1-methylethyl)phenyl ester] | -25% | 7 µM |  | 
13 | CC(C)c1cccc(C(C)C)c1OS(=O)(=O)NC(=O)CC1CCCCC1 [Example 26, sulfamic acid(cyclohexylacetyl)-2,6-bis(1-methylethyl)phenyl ester] | -26% | 28 µM |  | 
14 | CC(C)c1cccc(C(C)C)c1OS(=O)(=O)NC(=O)Cc1ccccc1 [Example 7, sulfamic acid(phenylacetyl)-2,6-bis(1-methylethyl)phenyl ester] | -17% | 47 µM |  | 

Reference: patent publication US5491172A, “N-acyl sulfamic acid esters (or thioesters), N-acyl sulfonamides, and N-sulfonyl carbamic acid esters (or thioesters) as hypercholesterolemic agents” (Warner-Lambert Company, priority 1994, dated 1996)
